Results: US6589766B1, “Aldol consensations by catalytic antibodies” (The Scripps Research Institute, priority 1997, dated 2003)

Key:
[1] = cited from earlier work; for pKa of the amino group: free in aqueous solution / water
[2] = test system: aldolase antibodies 38C2 and 33F12; assay: inhibition of antibody aldolase activity by β-diketones; type: biochemical
Experimental: For ease of comparison we determined specific rates for these reactions under the following defined conditions: 1 M of donor, 500 mM of aldehyde 4 and 0.4 mol-% of antibody . […] A large variety of other ketones were also studied with aldehyde 4 with monitoring of the consumption of 4 and appearance of a new peak tentatively assigned as the β-hydroxyketone product. The antibody catalyzed aldol reactions were inhibited by addition of equimolar amounts of the hapten 1 or 2,4-pentanedione. Further control experiments were carried out using lysine or bovine serum albumin instead of the antibodies. […] Further study of mixed solvent systems may allow conditions to be defined where substrates such as these are accepted by the catalyst. Of the ketones studied, reactions involving hydroxyacetone as the donor were the most efficient.
No background reaction for the overall conversion of cyclopentanone to 35 in the absence of antibody could be observed following extended incubation for 2 months.
The reaction of 3-methyl-2,4-pentanedione was monitored spectrophotometrically by following the absorption of the antibody-enamine complex 3 now at 335 nm. […] Study of the dependence of the rate of enamine formation on pH with 2,4-pentanedione yielded the same pKa.

[3] = control aldol reactions using lysine or bovine serum albumin instead of the antibodies; type: biochemical; details: used instead of the antibodies
Experimental: For ease of comparison we determined specific rates for these reactions under the following defined conditions: 1 M of donor, 500 mM of aldehyde 4 and 0.4 mol-% of antibody .

[4] = amine catalyzed retro-aldolization of 59 in aqueous buffer and n-octanol; type: biochemical
Excerpt: Therefore the second order rate constants for n-butylamine and aminoacetonitrile catalyzed retro-aldolization of 59 where determined in aqueous buffer and n-octanol. […] The pka's of n-butylamine and aminoacetonitrile in water are 10.61 and 5.34 (Hupe, D. J.; Kendall, M. C. R.; Spencer, T. A. J. Am. Chem. Soc. 1972, 94, 1254). […] Antibody 38C2 provides a 106-108 fold enhancement of the efficiency of the retro-aldol reaction of 59 as compared to the non-enzymic amine catalyzed reactions in either aqueous or organic media. […] The effectiveness of the active site amine of 38C2 is also indicated by effective molarities between 560 and 35,000 M depending on the amine and solvent system studied.
The activation energy for this reaction should be […] in nonpolar solvents such as the active site of the antibody and n-octanol since the reaction involves charge dispersal in the transition state. A polar medium would be expected to stabilize the cationic iminium intermediates to a greater extent than the activated complex. (Reichardt, C., in Solvents and Solvents Effects in Organic Chemistry Ebel, H. F., Wentrup-Byne, E., Eds.; New York, N.Y., 1990, 2nd eddition, pp1-511; Heathcock, C. H. Stereoselective Aldol Condensations, in E. Buncel and T. Durst (eds): Comprehensive Carbanion Chemistry. Part B, P. 177ff. (particularly p. 198), Elsevier, Amsterdam 1984).

Row | Compound | pKa of the protons at the 3 position [1] | pKa of the amino group [1] | catalysis of the aldol reactions [3] | further results
1 | CC(=O)CC(C)=O [2,4-pentanedione] | 8.87 |  |  | inhibition of ab 38C2 catalyzed elimination ([2]; elimination from 36 to 35): inhibited; inhibition of antibody catalyzed aldol reactions ([2]; equimolar amounts): inhibited
2 | CC(=O)C(C)C(C)=O [3-methyl-2,4-pentanedione] | 10.65 |  |  | inhibition of aldolase activity ([2]; stoichiometric reaction forming stable vinylogous amides): completely inhibiting aldolase activity
3 | N#CCN [aminoacetonitrile] |  | 5.34 |  | 
4 | NCCCC[C@H](N)C(=O)O [lysine] |  | around 10.5 | No catalysis | 
5 | CCCCN [n-butylamine] |  | 10.61 |  | catalysis in n-octanol compared to catalysis in aqueous solution [4]: 63 fold
6 | bovine serum albumin: control protein used instead of the antibodies |  |  | No catalysis | 
